# Assay results taken from patent US20060084659A1, “Augmentation of psychotherapy with cannabinoid reuptake inhibitors” (priority 2004, published 2006).
# How the values were obtained:
# [1] = tested on: Adult male Sprague-Dawley rats; assay: Extinction of conditioned fear measured by fear-potentiated startle (FPS) after extinction training; assay type: in vivo, rat; conditions: for fear potentiated startle (FPS) after extinction training: 10 mg/kg AM404, 5 mg/kg rimonabant, alone or together, 30 trial extinction, 24 hrs post extinction training; for fear (FPS) vs vehicle: 10 mg/kg i.p., 30-trial extinction; for extinction of fear (summary of Examples 1-10): systemic application in rats, fear-potentiated startle; for conditioned fear following extinction training vs vehicle: p<0.01
# Procedure: Animals: Adult male Sprague-Dawley rats (Charles River, Raleigh, N.C., 350-450 g) were used in the present studies. Animals were housed in pairs in a temperature-controlled animal colony, with ad libitum access to food and water, and maintained on a 12 hr light/dark cycle.
# (§1) Fear conditioning: All training and testing trials were performed in standardized chambers optimized for the measurement of fear-potentiated startle (see Walker et al. (2002) J. Neurosci. 22: 2343-2351). Animals were pre-exposed to the chambers for 10 min on each of 2 days prior to training for habituation purposes and to minimize the effects of contextual conditioning. On 2 consecutive days following habituation, rats were returned to the same chambers and presented with 10 pairings of a light (3.7 sec) co-terminating with a 0.4-mA, 0.5-sec shock (3.6-min inter-trial interval).
# (§2) Matching: Twenty-four hours following the last fear-conditioning session, animals were returned to the same chambers and presented with startle stimuli (50-msec, 95-dB white-noise bursts) in the presence or absence of the light conditioned stimulus (light-CS). Increased startle in the presence of the light-CS was taken as a measure of conditioned fear, and the magnitude of the fear response was calculated as the percentage by which startle increased when the light-CS was presented in compound with the startle stimulus versus when it was omitted (fear-potentiated startle or FPS). Using these measurements, animals were divided into groups displaying approximately equal levels of FPS prior to drug treatment and extinction training.
# Extinction training: Five days following the last fear conditioning trial, animals were injected intraperitoneally with a test compound or its vehicle in 1 mL/kg volumes and then immediately returned to the same chambers and presented with 15, 30 or 90 presentations of the light-CS in the absence of footshock (3.7-sec light, 30-sec inter-trial interval). One hour following extinction training, a subset of animals was given a short test consisting of startle stimuli in the presence or absence of the light-CS (2-5 light-startle compounds, values shown are averages of all trials). Twenty-four hrs post-extinction training, all animals were tested for the presence of fear-potentiated startle (15 light-startle compounds).
# Statistics: Comparisons were made across drug-treatment groups at each test (e.g. 24-hr groups were compared across treatment groups) using ANOVA or Student's t-test with drug or dose as the independent measure, and using Fischer's LSD test for post-hoc analysis.
# [2] = tested on: Adult male Sprague-Dawley rats; assay: FPS in fear-conditioned animals without cue re-exposure; assay type: in vivo, rat; conditions: 10 mg/kg AM404 or 5 mg/kg rimonabant; tested 1 hr following drug administration
# Procedure: as §1
# as §2, with “training. […]” for “training.”
# [3] = tested on: Adult male Sprague-Dawley rats; assay: Shock reactivity, baseline startle and activity measures; assay type: in vivo, rat; conditions: 10 mg/kg
# Procedure: Shock Reactivity, Startle, and Activity Measures: Animals that had been previously fear-conditioned were injected with AM404, placed in the training/testing chambers, and presented with 3 unpaired shocks and 42 startle stimuli (0.4-mA, 0.5-sec shocks, 95-dB noise-burst startle). The same group of animals was returned to the same chambers 3 d later, injected with vehicle, and presented with an identical behavioral test. The values shown are the mean integrated voltages of the accelerometers measured over 200-msec periods beginning at the onset of either the shocks or the startle stimuli. Additionally, a measure of spontaneous motor activity was derived from the mean displacement of the accelerometers in the 2 min prior to delivery of the first shock, while animals were exploring the chambers.
# This experiment examined behavioral effects engendered by AM404 treatment. These included the effect of 10 mg/kg AM404 on: 1) shock-reactivity as a measure of pain sensitivity; 2) baseline startle as one measure of anxiety; and 3) general motor activity within the training chambers. Animals were fear-conditioned and then returned to the training chamber several days later and administered 10 mg/kg AM404. Following drug administration, animals were presented with 3 shocks and 42 startle stimuli identical to those used in the above studies. Subsequently, the same animals were returned to the testing chamber 3 days later, injected with vehicle, and similarly tested.
# [4] = tested on: Adult male Sprague-Dawley rats; assay: Shock-induced reinstatement of fear; assay type: in vivo, rat
# Procedure: Reinstatement: Animals that had been previously fear-conditioned and extinction-trained were returned to the testing chamber 48 hours and sometimes 96 hours following extinction training and presented with 3 footshocks in the absence of the light-CS (0.4 mA, 0.5 sec shock, 2 min inter-trial interval). Immediately following the unpaired shocks, animals were tested for the presence of fear-potentiated startle (15 light-startle compounds).
# Shock-induced reinstatement was examined 2 days following treatment with AM404 or vehicle during extinction. Previous studies have shown that the level of fear following reinstatement is dependent both on the level of the stressor and the amount of previous extinction, as long as the stressor is delivered in the same context as the original training context (Rescorla & Heth (1975). J. Exp. Psychol. Anim. Behav. Process. 1(1): 88-96; Bouton & King (1983) J. Exp. Psychol. Anim. Behav. Process. 9: 248-265). As animals were matched for equivalent FPS prior to extinction training, the susceptibility of animals to reinstatement can be taken as a secondary measure of the strength of extinction training, and perhaps as a preliminary measure of the resiliency of these inhibitory extinction memories to stressors. […]
# [5] = cited from earlier work
# [6] = PD98059 systemic and intra-amygdala infusions; AP5 intra-amygdala infusions; cited from earlier work
# [7] = intra-amygdala infusions; fear-potentiated startle (AP5 also freezing); cited from earlier work
# [8] = doses greater than 5 mg/kg; Herzberg et al. 1997; cited from earlier work
structure (smiles),measurement,setting,value
"CCCCC/C=C\C/C=C\C/C=C\C/C=C\CCCC(=O)Nc1ccc(O)cc1 [AM404, N-(4-hydroxyphenyl)arachidonamide]",fear potentiated startle (FPS) after extinction training,[1],significant extinction
same,fear (FPS) vs vehicle,"[1]; 1 hr post extinction, p<0.05",significantly less fear than vehicle-treated controls
same,fear (FPS) vs vehicle,"[1]; 24 hrs post-extinction, post-hoc p<0.05",significantly less than vehicle-treated animals
same,extinction retention (fear in the presence of the CS),"[1]; prior to 30-trial extinction training, 24 hrs following extinction training, main effect of drug p<0.05",enhancement of extinction retention
same,extinction of fear (summary of Examples 1-10),[1],dose-dependently enhances extinction of fear
same,FPS when cue re-exposure omitted,[2],no effect on FPS
same,shock reactivity (pain sensitivity),"[3]; 3 footshocks, p>0.5",little effect
same,baseline startle (anxiety),[3]; p=0.45,non-significant trend toward decreased baseline startle
same,overall locomotor activity levels in the testing chamber,[3]; p>0.5,little effect
same,reinstatement-induced conditioned fear,"[4]; 2 mg/kg and 10 mg/kg groups pooled, drug given prior to extinction training, 48 hrs prior to reinstatement with 3 footshocks, p<0.05",less reinstatement-induced conditioned fear
same,within-session extinction (change in FPS) after reinstatement,"[4]; first 4 trials of testing following reinstatement, Trial X Drug p<0.02",little change
"N[C@@H]1CONC1=O [DCS, D-cycloserine]",half-life,[5]; in vivo,10 h
same,route of excretion,[5]; in vivo,primarily renally excreted
same,time of peak blood levels after dosing,[5]; in vivo,3 to 8 h
same,side effects,"[5]; infrequent, subjects on chronic dosing schedules, generally chronically ill with tuberculosis","drowsiness, headache, confusion, tremor, vertigo, and memory difficulties, paresthesias, and seizure"
NC(CCCP(=O)(O)O)C(=O)O (stereo not shown) [AP5],fear conditioning,[6],block fear conditioning
same,extinction,[7],block extinction
Cc1c(C(=O)NN2CCCCC2)nn(-c2ccc(Cl)cc2Cl)c1-c1ccc(Cl)cc1 [rimonabant],conditioned fear following extinction training vs vehicle,"[1]; 1.5 mg/kg i.p., 90-trial extinction, 24 hrs post-extinction",significantly higher levels of conditioned fear than vehicle-treated controls
same,conditioned fear following extinction training vs vehicle,"[1]; 5 mg/kg i.p., 90-trial extinction, 24 hrs post-extinction",significantly higher levels of conditioned fear than vehicle-treated controls
same,fear potentiated startle (FPS) after extinction training,[1],no decrease in fear potentiated startle
same,extinction retention (fear in the presence of the light-CS),"[1]; 90-trial extinction, acute administration immediately prior to extinction training, tested 24 hrs following extinction training",profound disruption of extinction retention
same,extinction of fear (summary of Examples 1-10),[1],dose-dependently blocks extinction of fear
same,FPS when cue re-exposure omitted,[2],no effect on FPS
"Cc1c(C(=O)c2cccc3ccccc23)c2cccc3c2n1[C@H](CN1CCOCC1)CO3 [WIN 55-212,2]",extinction retention (reduction in fear),[1]; 5 mg/kg single dose prior to 30-trial extinction training,did not augment the non-significant reduction in fear
same,locomotor and analgesic effects,[8],prominent locomotor and analgesic effects
"NC(=O)c1cccc(-c2cccc(OC(=O)NC3CCCCC3)c2)c1 [URB597, cyclohexylcarbamic acid 3′-carbamoylbiphenyl-3-yl ester]",reduction in fear within the testing session,"[1]; 15-trial extinction, relative to animals receiving no drug",greater reductions in fear within the testing session
same,average decrease in FPS relative to pre-extinction levels,"[1]; 15-trial extinction, testing sessions 48 and 96 hours after extinction training",approximately 30%
same,extinction retention (fear in the presence of the CS),"[1]; prior to 15-trial extinction training, 48 hrs following extinction training",enhancement of extinction retention
same,extinction of fear (summary of Examples 1-10),[1],dose-dependently enhances extinction of fear
COc1cccc(-c2cc(=O)c3ccccc3o2)c1N [PD98059],fear conditioning,[6],disrupt fear-conditioning
same,extinction,[7],disrupt extinction
